Test results from patent publication US20220296613A1, “FOOD-INDEPENDENT DOSING OF CV-10155 TO TREAT GABAA DISORDERS” (priority 2021, published 2022).

Assays:
[1] = tested on: models of depression, anxiety, seizure, and EEG; experiment: Preclinical rodent models of seizure, anxiety, depression and EEG biomarker (overall); type: in vivo
clinical = conditions: human, in vivo
[2] = Pharmacokinetics of CV-10155 in preclinical rodent studies; conditions: for AUC(0-inf) / Cmax / Tmax: rodent, in vivo, po
[3] = 1 mg/kg (minimal effective dose), study including male and female subjects
[4] = 3 mg/kg, study including male and female subjects
[5] = 5 mg/kg, study including only male subjects
[6] = 10 mg/kg, study including male and female subjects

Q: Which results are given for `C[C@@]1(O)CC[C@@]2(C)[C@@H](CC[C@@H]3[C@@H]2CC[C@]2(C)[C@@H](C(=O)Cn4cc(C#N)cn4)CC[C@@H]32)C1` [CV-10155, 1-[2-[(3R,5S,8R,9S,10S,13S,14S,17S)-3-hydroxy-3,10,13-trimethyl-1,2,4,5,6,7,8,9,11,12,14,15,16,17-tetradecahydrocyclopenta[a]phenanthren-17-yl]-2-oxoethyl]pyrazole-4-carbonitrile]?
A: dose from which robust efficacy was observed ([1]; most rodent models of seizure): ≥ 3 mg/kg; minimal effective dose (MED) ([1]; rodent models of seizure): 1 mg/kg; AUC(0-inf) (clinical; 135 mg): 3660 ng·h/mL; Cmax (clinical; 135 mg): 333 ng/mL; Tmax (clinical; 135 mg): 2.83 h; half-life (clinical; 135 mg): 25 h; Tmax (clinical; po): 2 to 4 h; half-life (clinical; po): 24 to 26 h; 1/2 life [2, 3]: 3.66-6.82; Oral BA [2, 3]: 58.6-92.4; Oral BA ([2]; 2 mg/kg, study including only male subjects): 47.2; 1/2 life [2, 4]: 2.84-4.96; Oral BA [2, 4]: 53-92.3; 1/2 life [2, 5]: 4.19; Oral BA [2, 5]: 58.1; 1/2 life [2, 6]: 3.23-4.80; Oral BA [2, 6]: 79.7-100; AUC(0-inf) ([2]; both, 1 mg/kg): 508 to 1300 ng·h/mL; Cmax ([2]; both, 1 mg/kg): 84.4 to 128 ng/mL; Tmax ([2]; both, 1 mg/kg): 1.5 to 2 h; AUC(0-inf) ([2]; both, 3 mg/kg): 1380 to 3900 ng·h/mL; Cmax ([2]; both, 3 mg/kg): 270 to 440 ng/mL; Tmax ([2]; both, 3 mg/kg): 1.25 to 2.5 h; AUC(0-inf) ([2]; both, 10 mg/kg): 6850 to 14700 ng·h/mL; Cmax ([2]; both, 10 mg/kg): 1160 ng/mL; Tmax ([2]; both, 10 mg/kg): 1.25 to 2.25 h; AUC(0-inf) ([2]; male, 2 mg/kg): 1320 ng·h/mL; Cmax ([2]; male, 2 mg/kg): 224 ng/mL; Tmax ([2]; male, 2 mg/kg): 1.7 h; AUC(0-inf) ([2]; male, 5 mg/kg): 2610 ng·h/mL; Cmax ([2]; male, 5 mg/kg): 499 ng/mL; Tmax ([2]; male, 5 mg/kg): 0.83 h
